Measurements as given in ChEMBL document CHEMBL4177666, “Compound design guidelines for evading the efflux and permeation barriers of Escherichia coli with the oxazolidinone class of antibacterials: Test case for a general approach to improving whole cell Gram-negative activity” (Bioorg Med Chem Lett, 2017).
Converted amounts (≈) assume the structure as drawn.

Columns and labels:
Assay type in all cases: functional
Escherichia coli [1] = assay: Antibacterial activity against gram-negative wild type Escherichia coli MG1655 by CLSI broth microdilution method
Escherichia coli [2] = assay: Antibacterial activity against gram-negative Escherichia coli MG1655 membrane permeabilized mutant in presence of polymyxinnonapeptide by CLSI broth microdilution method
Escherichia coli [3] = assay: Antibacterial activity against gram-negative Escherichia coli MG1655 expressing AcrAB-TolC efflux pump deletion mutant by CLSI broth microdilution method
Staphylococcus aureus = assay: Antibacterial activity against methicillin-susceptible Staphylococcus aureus ATCC 29213 by CLSI broth microdilution method
Escherichia coli [4] = assay: Efflux index, ratio of MIC for wild type Escherichia coli MG1655 to MIC for Escherichia coli MG1655 expressing AcrAB-TolC efflux pump deletion mutant
Escherichia coli [5] = assay: Permeability index, ratio of MIC for wild type Escherichia coli MG1655 to MIC for Escherichia coli MG1655 membrane permeabilized mutant in presence of polymyxinnonapeptide
Bacterial 70S ribosome = assay: Inhibition of protein synthesis in Escherichia coli ribosomes incubated for 1 hr at 37 degC by SDS-PAGE and Gaussia luciferase reporter gene assay

Row | Structure (SMILES) | MIC (Escherichia coli [1]) [µg/mL] | MIC (Escherichia coli [2]) [µg/mL] | MIC (Escherichia coli [3]) [µg/mL] | MIC (Staphylococcus aureus) [µg/mL] | Ratio (Escherichia coli [4]) | Ratio (Escherichia coli [5]) | IC50 (Bacterial 70S ribosome) [µM]
1 | CC(=O)NC[C@H]1CN(c2ccc(-c3ccc(C#N)c(O)c3)c(F)c2)C(=O)O1 | > 256 | 32 | 32 (≈ 86.6 µM) | 2 (≈ 5.41 µM) | >8 | >8 | –
2 | O=C1O[C@@H](CO)CN1c1ccc(-c2ccc(N3C[C@@H](CO)OC3=O)nc2)c(F)c1 | > 128 | – | – | 32 (≈ 79.3 µM) | – | – | –
3 | O=C1O[C@@H](CO)CN1c1ccc(-c2ccc(F)c(O)c2)[n+]([O-])c1 | > 256 | – | – | 64 (≈ 200 µM) | – | – | –
4 | N#Cc1cc(O)cc(-c2ccc(N3C[C@H](Cn4nccn4)OC3=O)cc2F)c1 | > 256 | 64 | 64 (≈ 169 µM) | 32 (≈ 84.4 µM) | >4 | >4 | –
5 | N/C(=N\O)c1ccc(-c2ccc(N3C[C@H](CNC(=O)C(F)(F)F)OC3=O)cc2F)cc1O | > 256 | – | – | > 64 | – | – | –
6 | CC(=O)NC[C@H]1CN(c2ccc(-c3ccc(CN)cc3)c(F)c2)C(=O)O1 | 64 (≈ 179 µM) | 32 | 8 (≈ 22.4 µM) | 2 (≈ 5.6 µM) | 8 | 2 | –
7 | N/C(=N\O)c1ccc(-c2ccc(N3C[C@H](CO)OC3=O)cc2F)cc1O | – | – | – | – | 1 | 2 | –
8 | NCc1cc(F)c(-c2ccc(N3C[C@H](CO)OC3=O)cc2F)cc1O | – | – | – | – | 1 | 2 | –
9 | NCc1ccc(-c2ccc(N3C[C@H](CN4C(=O)CNC4=O)OC3=O)cc2F)cc1 | > 256 | – | – | > 64 | – | – | –
10 | NCc1ccc(-c2ccc(N3C[C@H](Cn4nncc4O)OC3=O)cc2F)cc1 | > 64 | – | – | > 64 | – | – | –
11 | N/C(=N\O)c1ccc(-c2ccc(N3C[C@H](CO)OC3=O)cc2)cc1 | > 256 | 32 | 8 (≈ 24.4 µM) | 2 (≈ 6.11 µM) | >32 | >8 | –
12 | O=C(NC[C@H]1CN(c2ccc(-c3ccc(F)c(O)c3)c(F)c2)C(=O)O1)C(F)F | > 32 | 8 | 4 (≈ 10 µM) | 1 (≈ 2.51 µM) | >8 | >4 | –
13 | NCc1ccc(-c2ccc(N3C[C@H](Cn4cc(CN)nn4)OC3=O)cc2F)cc1 | > 256 | 128 | 128 (≈ 323 µM) | 8 (≈ 20.2 µM) | >2 | >2 | –
14 | N#Cc1ccc(-c2ccc(N3C[C@H](CO)OC3=O)nc2)cc1O | > 256 | – | – | > 64 | – | – | –
15 | NCc1ccc(-c2ccc(N3C[C@H](CO)OC3=O)cc2F)cc1O | – | – | – | – | 10.2 | 2.6 | –
16 | COc1cc(N2C[C@H](CO)OC2=O)ccc1-c1ccc(CN)cc1 | > 256 | – | – | > 64 | – | – | –
17 | NCc1ncc(-c2ccc(N3C[C@H](CO)OC3=O)cc2F)cc1O | 51 (≈ 153 µM) | – | – | 20 (≈ 60 µM) | 1.6 | 1.6 | 192
18 | CC(=O)NC[C@H]1CN(c2ccc(-c3ccc(F)c(O)c3)c(F)c2)C(=O)O1 | > 256 | 16 | 8 (≈ 22.1 µM) | 2 (≈ 5.52 µM) | >32 | >16 | –
19 | O=C1O[C@@H](CO)CN1c1ccc(-c2ccc([N+](=O)[O-])c(O)c2)c(F)c1 | – | – | – | – | 1 | 1 | –

Row | Structure (SMILES) | MIC (Escherichia coli [1]) [µg/mL] | MIC (Escherichia coli [2]) [µg/mL] | MIC (Escherichia coli [3]) [µg/mL] | MIC (Staphylococcus aureus) [µg/mL] | Ratio (Escherichia coli [4]) | Ratio (Escherichia coli [5]) | IC50 (Bacterial 70S ribosome) [µM]
20 | CC(=O)NC[C@H]1CN(c2ccc(-c3cnc(C#N)c(O)c3)c(F)c2)C(=O)O1 | > 256 | – | 128 (≈ 346 µM) | 32 (≈ 86.4 µM) | >2 | – | –
21 | NCc1ccc(-c2ccc(N3C[C@H](Cn4cc(CO)nn4)OC3=O)cc2F)cc1 | 256 (≈ 644 µM) | 128 | 64 (≈ 161 µM) | 16 (≈ 40.3 µM) | – | 2 | –
22 | NCc1ccc(-c2ccc(N3C[C@H](CNC(=O)C(F)(F)F)OC3=O)cc2F)cc1 | 64 (≈ 156 µM) | 11 | 2 (≈ 4.86 µM) | 2 (≈ 4.86 µM) | 32 | 6 | –
23 | CCOc1cnnn1C[C@H]1CN(c2ccc(-c3ccc(CN)cc3)c(F)c2)C(=O)O1 | > 256 | 256 | 128 (≈ 311 µM) | 32 (≈ 77.8 µM) | >2 | >1 | –
24 | NC[C@H]1CN(c2ccc(N3CCOCC3)c(F)c2)C(=O)O1 | > 256 | – | – | > 64 | – | – | –
25 | NCc1ccc(-c2ccc(N3C[C@H](Cn4cc(O)nn4)OC3=O)cc2F)cc1 | > 64 | – | 32 (≈ 83.5 µM) | 8 (≈ 20.9 µM) | >2 | – | –
26 | CC(=O)NC[C@H]1CN(c2ccc(N3CCOCC3)c(F)c2)C(=O)O1 [LINEZOLID] | 130 (≈ 385 µM) | 36 | 11 (≈ 32.6 µM) | 3.1 (≈ 9.19 µM) | 12 | 3.6 | 23.7
27 | COc1ccc(N2C[C@H](CO)OC2=O)cc1O | > 256 | – | – | > 64 | – | – | –
28 | N/C(=N\O)c1ccc(-c2ccc(N3C[C@H](CO)OC3=O)cc2F)cn1 | > 256 | 16 | 16 (≈ 46.2 µM) | 1 (≈ 2.89 µM) | >16 | >16 | –
29 | NCc1ccc(-c2ccc(N3C[C@H](Cn4nncc4C(=O)O)OC3=O)cc2F)cc1 | > 128 | – | – | 16 (≈ 38.9 µM) | – | – | –
30 | CC(=O)NC[C@H]1CN(c2ccc(-c3ccnc(N)c3)c(F)c2)C(=O)O1 | 128 (≈ 372 µM) | 32 | 8 (≈ 23.2 µM) | 2 (≈ 5.81 µM) | 16 | 4 | –
31 | NC(/C=C/c1ccc(N2C[C@H](CO)OC2=O)cc1F)=N\O | > 128 | – | – | > 64 | – | – | –
32 | N/C(=N\O)c1ccc(-c2ccc(N3C[C@H](CNC(=O)C(F)(F)F)OC3=O)cc2F)cc1 | > 256 | 16 | < 2 | < 0.5 | >256 | >16 | –
33 | NCc1ccc(-c2ccc(N3C[C@H](Cn4nc[nH]c4=O)OC3=O)cc2F)cc1 | > 64 | – | – | 32 (≈ 83.5 µM) | – | – | –
34 | O=C1O[C@@H](CO)CN1c1ccc(O)c(F)c1 | > 256 | – | – | > 64 | – | – | –
35 | NCc1ccc(-c2ccc(N3C[C@H](Cn4cc(C(=O)O)nn4)OC3=O)cc2F)cc1 | > 256 | – | – | > 64 | – | – | –
36 | NC[C@H]1CN(c2ccc(-c3ccc(F)c(O)c3)c(F)c2)C(=O)O1 | 256 (≈ 799 µM) | 256 | 256 (≈ 799 µM) | 64 (≈ 200 µM) | 1 | 1 | –
37 | O=C1O[C@@H](CO)CN1c1ccc(O)cc1F | > 256 | – | – | > 64 | – | – | –
38 | O=C(O)c1ccc(N2C[C@H](CO)OC2=O)cc1F | > 256 | – | – | > 64 | – | – | –

Row | Structure (SMILES) | MIC (Escherichia coli [1]) [µg/mL] | MIC (Escherichia coli [2]) [µg/mL] | MIC (Escherichia coli [3]) [µg/mL] | MIC (Staphylococcus aureus) [µg/mL] | Ratio (Escherichia coli [4]) | Ratio (Escherichia coli [5]) | IC50 (Bacterial 70S ribosome) [µM]
39 | NCc1ccc(-c2ccc(N3C[C@H](CO)OC3=O)cc2O)cc1 | > 256 | – | – | > 64 | – | – | –
40 | NCc1ccc(-c2ccc(N3C[C@H](C(=O)O)OC3=O)cc2F)cc1 | > 256 | – | – | > 64 | – | – | –
41 | Nc1cc(-c2ccc(N3C[C@H](CNC(=O)C(F)(F)F)OC3=O)cc2F)ccn1 | > 32 | 16 | 8 (≈ 20.1 µM) | 4 (≈ 10 µM) | >=8 | >=4 | –
42 | NCc1ccc(-c2ccc(N3C[C@H](C(N)=O)OC3=O)cc2F)cc1 | > 256 | – | – | > 64 | – | – | –
43 | CCOc1cn(C[C@H]2CN(c3ccc(-c4ccc(CN)cc4)c(F)c3)C(=O)O2)nn1 | > 64 | – | 32 (≈ 77.8 µM) | 16 (≈ 38.9 µM) | >4 | – | –
44 | O=C1O[C@@H](CO)CN1c1ccc(-c2cc(O)c(F)cc2F)cc1 | > 256 | 64 | 32 (≈ 99.6 µM) | 4 (≈ 12.5 µM) | >8 | >4 | –
45 | O=C1CCc2cc(-c3ccc(N4C[C@H](CO)OC4=O)cc3F)cc(O)c21 | > 256 | 64 | 8 (≈ 22.4 µM) | 1 (≈ 2.8 µM) | 8 | >32 | –
46 | NCc1ccc(-c2ccc(N3C[C@H](CN4CCOC4=O)OC3=O)cc2F)cc1 | > 256 | – | 256 (≈ 664 µM) | 16 (≈ 41.5 µM) | >=2 | – | –
47 | O=C1O[C@@H](CNC(=O)C(F)(F)F)CN1c1ccc(-c2ccc(F)c(O)c2)c(F)c1 | > 256 | 256 | 256 (≈ 615 µM) | 32 (≈ 76.9 µM) | >2 | >2 | –
48 | NCc1ccc(-c2ccc(N3C[C@H](CNC(=O)C(F)F)OC3=O)cc2F)cc1 | 128 (≈ 325 µM) | 32 | 4 (≈ 10.2 µM) | 2 (≈ 5.08 µM) | 32 | 4 | –
49 | O=C1O[C@@H](CO)CN1c1ccc(-c2ccccc2F)cc1 | > 64 | – | 8 (≈ 27.8 µM) | 4 (≈ 13.9 µM) | >8 | – | –
50 | O=C1O[C@@H](CO)CN1c1ccc(-c2cc(O)ccc2F)cc1 | > 256 | 32 | 16 (≈ 52.8 µM) | 1 (≈ 3.3 µM) | >16 | >8 | –
51 | N#Cc1cc(O)cc(-c2ccc(N3C[C@H](Cn4ccnn4)OC3=O)cc2F)c1 | > 256 | 128 | 64 (≈ 169 µM) | 8 (≈ 21.1 µM) | >4 | >2 | –
52 | N#Cc1ccc(-c2ccc(N3C[C@H](CN)OC3=O)cc2F)cc1O | > 256 | – | – | 64 (≈ 196 µM) | – | – | –
53 | NCCC#Cc1ccc(N2C[C@H](CO)OC2=O)cc1F | > 256 | – | – | > 64 | – | – | –
54 | CC(=O)NC[C@H]1CN(c2ccc(-c3ccc(CN)c(O)c3)c(F)c2)C(=O)O1 | 128 (≈ 343 µM) | 64 | 8 (≈ 21.4 µM) | 4 (≈ 10.7 µM) | 16 | 2 | –
55 | COc1ccccc1-c1ccc(N2C[C@H](CO)OC2=O)cc1 | > 64 | – | – | 64 (≈ 214 µM) | – | – | –
56 | NCc1ccc(-c2ccc(N3C[C@H](Cn4nncc4CO)OC3=O)cc2F)cc1 | > 256 | – | – | > 64 | – | – | –
